# Laboratory results from article PMC8308625, “Preclinical Studies in Anti-Trypanosomatidae Drug Development” (Pharmaceuticals, 2021).
# Read-outs that look alike come from different tables or passages of the source.
# Key:
# [1] = system: hepatocellular carcinoma (HepG2) cell line; details: cited from earlier work
# [2] = Nonspecific cytotoxicity in murine macrophages (MTT); details: mouse, J774.1 murine macrophages
# Protocol: (§1) Cell viability was then assessed using the 3-(4,5-dimethylthiazol-2-yl)-2,5-diphenyltetrazolium bromide (MTT) colorimetric assay [1]. […] All assays were performed in triplicate [35].
# [3] = system: L. infantum veterinary isolate (MCAN_UY_2015_gPL8); experiment: Growth inhibition of L. infantum veterinary isolate promastigotes (resazurin); details: for Selectivity Index MΦ/Veterinary: EC50 J774.1 macrophages versus L. infantum veterinary isolate; for EC50: Leishmania infantum, read-out: EC50 L. infantum Veterinary
# T. b. brucei = details: ref Duffy et al., 2017; read-out: EC50 T. brucei brucei; cited from earlier work
# Candida albicans Biofilm = system: Candida albicans Biofilm; design: method as in Vila and Lopez-Ribot, 2017; details: ref Vila and Lopez-Ribot, 2017; read-out: EC50 Candida albicans Biofilm Inhibitor; cited from earlier work
# [4] = system: L. infantum reference strain (MHOM/BR/2002/LPC-RPV); experiment: Growth inhibition of L. infantum reference strain promastigotes (resazurin); details: for Selectivity Index MΦ/Reference: EC50 J774.1 macrophages versus L. infantum reference strain; for EC50: Leishmania infantum, read-out: EC50 L. infantum Reference
# P. falciparum = details: cited from earlier work
# L. braziliensis = details: Table 3, thiazolidene hydrazines; ref [13],[16],[19],[23],[25]; read-out: EC50 ± SD L. brazils; cited from earlier work
# [5] = system: J774.1 murine macrophages; experiment: Nonspecific cytotoxicity in murine macrophages (MTT); details: Mus musculus, J774.1, read-out: EC50 ± SD MΦ
# Protocol: as §1
# [6] = system: L. infantum veterinary isolate (MCAN_UY_2015_gPL8); details: cited from earlier work
# T. cruzi [7] = details: Table 3, thiazolidene hydrazines; ref [13],[16],[19],[23],[25]; read-out: EC50 ± SD T. cruzi; cited from earlier work
# [8] = system: L. infantum reference strain (MHOM/BR/2002/LPC-RPV); details: cited from earlier work
# L. amazonensis = experiment: Growth inhibition of L. amazonensis promastigotes (resazurin); details: EC50 mammalian cell line/EC50 L. amazonensis
# [9] = target: Aldehyde dehydrogenase 1 family, member A1; design: method as in pubchem.ncbi.nlm.nih.gov; details: ref pubchem.ncbi.nlm.nih.gov; cited from earlier work
# C. albicans = system: C. albicans; design: method as in pubchem.ncbi.nlm.nih.gov; details: ref pubchem.ncbi.nlm.nih.gov; read-out: EC50 C. albicans Growth in the Presence of Fluconazole; cited from earlier work
# [10] = system: Cell division cycle 42 (GTP binding protein, 25kDa); design: method as in pubchem.ncbi.nlm.nih.gov; details: ref pubchem.ncbi.nlm.nih.gov; cited from earlier work
# Replicative DNA helicase = target: Replicative DNA helicase; design: method as in pubchem.ncbi.nlm.nih.gov; details: ref pubchem.ncbi.nlm.nih.gov; cited from earlier work
# [11] = design: method as in data provided by the DNDi program, non-published; details: ref data provided by the DNDi program, non-published; cited from earlier work
# Hsf1 protein = system: Hsf1 protein; design: method as in pubchem.ncbi.nlm.nih.gov; details: ref pubchem.ncbi.nlm.nih.gov; cited from earlier work
# [12] = target: Sphingosine-1-phosphate receptor 4; design: method as in pubchem.ncbi.nlm.nih.gov; details: ref pubchem.ncbi.nlm.nih.gov; cited from earlier work
# [13] = target: Neuropeptide S receptor isoform A; design: method as in pubchem.ncbi.nlm.nih.gov; details: ref pubchem.ncbi.nlm.nih.gov; cited from earlier work
# [14] = system: Leishmania donovani (amastigotes); details: cited from earlier work
# T. cruzi [15] = system: T. cruzi; design: method as in Duffy et al., 2017; details: ref Duffy et al., 2017; cited from earlier work
compound,measurement,setting,value
"Cc1[nH]c2ccccc2c1[C@H](c1cccs1)N1CCN(C)CC1 [MMV688768, 2-Methyl-3-[(R)-(4-methylpiperazin-1-yl)-thiophen-2-ylmethyl]-1H-indole]",EC50,"[1]; ref Vila and Lopez-Ribot, 2017, read-out: EC50 HepG2 cell line",32 µM
same,EC50 at 48 h,[2],> 50 µM
same,Selectivity Index MΦ/Veterinary,[3],>7
same,EC50,[3],6.8 ± 0.1 µM
same,EC50,T. b. brucei,1.5 µM
same,EC50,Candida albicans Biofilm,3.1 µM
same,Selectivity Index MΦ/Reference,[4],>5
same,EC50,[4],9.8 ± 0.5 µM
same,EC50,"P. falciparum; ref Duffy et al., 2017, read-out: EC50 P. falciparum ABS activity",4.7 µM
"CCCCCCCCCCCCCCCCOP(=O)([O-])OCC[N+](C)(C)C [Miltefosine, reference compound]",EC50,L. braziliensis,5 ± 2 µM
same,EC50 at 48 h,[2],50 ± 7 µM
same,EC50,[5],50 ± 7 µM
same,Selectivity Index MΦ/Veterinary,[3],12
same,Selectivity Index MΦ/Lin–Vet,[3]; EC50 mammalian cell line/EC50 L. infantum veterinary isolate,10
same,EC50,"[6]; Miltefosine comparative data, ref [19], read-out: EC50 L. infantum Veterinary",4.1 ± 0.1 µM
same,EC50,"[6]; Table 3, Miltefosine control, footnote f, ref [13],[16],[19],[23],[25], read-out: EC50 ± SD Lin–Vet",4.1 ± 0.1 µM
same,EC50,T. cruzi [7],8 ± 2 µM
same,EC50,"[8]; Miltefosine comparative data, ref [19], read-out: EC50 L. infantum Reference",5.3 ± 0.1 µM
same,EC50,"[8]; Table 3, Miltefosine control, footnote f, ref [13],[16],[19],[23],[25], read-out: EC50 ± SD Lin–Ref",5.3 ± 0.1 µM
same,Selectivity Index MΦ/Reference,[4],10
same,Selectivity Index MΦ/L. amaz,L. amazonensis,10
"COc1cccc(-n2nnnc2S(C)(=O)=O)c1 [MMV272144, 1-(3-Methoxyphenyl)-5-(methylsulfonyl)-1H-tetrazole]",EC50,[9],12.5 µM
same,EC50 at 48 h,[2],> 50 µM
same,Selectivity Index MΦ/Veterinary,[3],>42
same,EC50,[3],1.2 ± 0.1 µM
same,EC50,C. albicans,1.8 µM
same,EC50,[10],15 µM
same,EC50,Replicative DNA helicase,3.1 µM
same,in vivo absorption,[11],low
same,metabolic stability,[11],low
same,Selectivity Index MΦ/Reference,[4],>21
same,EC50,[4],2.4 ± 0.3 µM
same,EC50,Hsf1 protein,6.6 µM
same,EC50,[12],1.3 µM
same,EC50,[13],10 µM
"c1ccc(-c2nc(NC3CCCCC3)cc(C3CC3)n2)nc1 [MMV021013, N-Cyclohexyl-6-cyclopropyl-2-pyridin-2-ylpyrimidin-4-amine]",EC50,"[1]; ref Peña et al., 2015, read-out: EC50 HepG2 human cell line",400 µM
same,EC50 at 48 h,[2],> 50 µM
same,Selectivity Index MΦ/Veterinary,[3],>167
same,EC50,[3],0.3 ± 0.1 µM
same,EC50,"[14]; ref Peña et al., 2015",0.8 µM
same,activity against the L. donovani form found in a mammalian host,"[14]; ref [23],[24]",significant activity
same,EC50,T. cruzi [15],1.7 µM
same,EC50,T. b. brucei,3.5 µM
same,Selectivity Index MΦ/Reference,[4],>125
same,EC50,[4],0.4 ± 0.1 µM
same,EC50,"P. falciparum; ref Ballell et al., 2013, read-out: EC50 P. falciparum",0.7 µM
